Like-named read-outs stand apart in the source and are kept apart here.
Experiment: Pharmacokinetic parameters (Tmax, AUClast, Cmax) of DD217 in phase II trial patients
Assay type: in vivo, human (patients undergoing knee replacement surgery)
Settings: human, plasma
From the text: The design, eligibility criteria, and outcomes of the phase II clinical trial evaluating the safety and tolerability of DD217 (NCT05189002, ClinicalTrials.gov) have been described previously. Briefly, this was a multicenter, double-blind, randomized, prospective phase II study designed to determine the optimal dosing regimen and to assess the safety and efficacy of DD217 for the prevention of venous thromboembolism (VTE) in patients undergoing knee replacement surgery. Patients were randomized into one of three groups: two groups received oral DD217 at doses of 40 mg or 60 mg once daily, starting on the morning of the first postoperative day, and one group received the active comparator, dalteparin sodium. The treatment duration was 14 days.
In total, data from 52 patients who underwent knee replacement surgery were included in the analysis. Of these, 34 patients received DD217 at daily doses of 40 mg (n = 16) or 60 mg (n = 18), and 18 patients received dalteparin sodium.
To characterize the pharmacokinetic profile of DD217 in our study, three parameters were assessed: Cmax, Tmax, and AUClast.

## CC(=N)N(C)c1ccc(C(=O)Nc2ccc(C)cc2C(=O)Nc2ccc(Cl)cn2)cc1.Cl [DD217, N-(5-chloropyridin-2-yl)-5-methyl-2-[4-(N-methylacetimidamido)benzamido]benzamide hydrochloride]
im, 40 mg, CYP2C9 *1/*2, *1/*3, IM (n = 6), mean ± SD, read-out: AUClast
  AUC(0-t): 33.9 ± 36.2 ng·h/mL
im, 40 mg, CYP2C9 *1/*2, *1/*3, IM (n = 6), mean ± SD, read-out: Cmax
  Cmax: 3.72 ± 5.61 ng/mL
im, 40 mg, CYP2C9 *1/*2, *1/*3, IM (n = 6), mean ± SD, read-out: Tmax
  Tmax: 9 ± 8.17 h
im, 40 mg, CYP2C19 *1/*2, IM (n = 1), read-out: AUClast
  AUC(0-t): 48.5 ng·h/mL
im, 40 mg, CYP2C19 *1/*2, IM (n = 1), read-out: Cmax
  Cmax: 3.12 ng/mL
im, 40 mg, CYP2C19 *1/*2, IM (n = 1), read-out: Tmax
  Tmax: 4 h
im, 40 mg, CYP3A *1/*22, *1/*3, IM (n = 4), mean ± SD, read-out: AUClast
  AUC(0-t): 49 ± 48.7 ng·h/mL
im, 40 mg, CYP3A *1/*22, *1/*3, IM (n = 4), mean ± SD, read-out: Cmax
  Cmax: 6.63 ± 8.63 ng/mL
im, 40 mg, CYP3A *1/*22, *1/*3, IM (n = 4), mean ± SD, read-out: Tmax
  Tmax: 6.25 ± 3.5 h
im, 60 mg, CYP2C9 *1/*2, *1/*3, IM (n = 5), mean ± SD, read-out: AUClast
  AUC(0-t): 89.8 ± 89.3 ng·h/mL
im, 60 mg, CYP2C9 *1/*2, *1/*3, IM (n = 5), mean ± SD, read-out: Cmax
  Cmax: 9.24 ± 9.59 ng/mL
im, 60 mg, CYP2C9 *1/*2, *1/*3, IM (n = 5), mean ± SD, read-out: Tmax
  Tmax: 3.2 ± 2.17 h
im, 60 mg, CYP2C19 *1/*2, *2/*2, *2/*17, IM + PM (n = 4), mean ± SD, read-out: AUClast
  AUC(0-t): 32.3 ± 22.5 ng·h/mL
im, 60 mg, CYP2C19 *1/*2, *2/*2, *2/*17, IM + PM (n = 4), mean ± SD, read-out: Cmax
  Cmax: 3.64 ± 3.51 ng/mL
im, 60 mg, CYP2C19 *1/*2, *2/*2, *2/*17, IM + PM (n = 4), mean ± SD, read-out: Tmax
  Tmax: 9.5 ± 9.98 h
im, 60 mg, CYP3A *1/*3, IM (n = 2), mean ± SD, read-out: AUClast
  AUC(0-t): 186 ± 211 ng·h/mL
im, 60 mg, CYP3A *1/*3, IM (n = 2), mean ± SD, read-out: Cmax
  Cmax: 11.9 ± 12.7 ng/mL
im, 60 mg, CYP3A *1/*3, IM (n = 2), mean ± SD, read-out: Tmax
  Tmax: 3.5 ± 3.54 h
oral, 40 mg/day, ABCB1 rs1045642 T>C, C/C (n 5), read-out: AUClast (SD)
  AUC(0-t): 17.8 ng·h/mL
oral, 40 mg/day, ABCB1 rs1045642 T>C, C/C (n 5), read-out: Cmax (SD)
  Cmax: 2.42 ng/mL
oral, 40 mg/day, ABCB1 rs1045642 T>C, C/C (n 5), read-out: Tmax (SD)
  Tmax: 17.2 h
oral, 40 mg/day, ABCB1 rs1045642 T>C, T/C (n 7), read-out: AUClast (SD)
  AUC(0-t): 63.6 ng·h/mL
oral, 40 mg/day, ABCB1 rs1045642 T>C, T/C (n 7), read-out: Cmax (SD)
  Cmax: 8.03 ng/mL
oral, 40 mg/day, ABCB1 rs1045642 T>C, T/C (n 7), read-out: Tmax (SD)
  Tmax: 6 h
oral, 40 mg/day, ABCB1 rs1045642 T>C, T/T (n 4), read-out: AUClast (SD)
  AUC(0-t): 35.5 ng·h/mL
oral, 40 mg/day, ABCB1 rs1045642 T>C, T/T (n 4), read-out: Cmax (SD)
  Cmax: 4.63 ng/mL
oral, 40 mg/day, ABCB1 rs1045642 T>C, T/T (n 4), read-out: Tmax (SD)
  Tmax: 9.5 h
oral, 40 mg/day, ABCB1 rs1128503 T>C, C/C (n 8), read-out: AUClast (SD)
  AUC(0-t): 34.6 ng·h/mL
oral, 40 mg/day, ABCB1 rs1128503 T>C, C/C (n 8), read-out: Cmax (SD)
  Cmax: 4.84 ng/mL
oral, 40 mg/day, ABCB1 rs1128503 T>C, C/C (n 8), read-out: Tmax (SD)
  Tmax: 12.9 h
oral, 40 mg/day, ABCB1 rs1128503 T>C, C/T (n 6), read-out: AUClast (SD)
  AUC(0-t): 46.4 ng·h/mL
oral, 40 mg/day, ABCB1 rs1128503 T>C, C/T (n 6), read-out: Cmax (SD)
  Cmax: 5.24 ng/mL
oral, 40 mg/day, ABCB1 rs1128503 T>C, C/T (n 6), read-out: Tmax (SD)
  Tmax: 9.5 h
oral, 40 mg/day, ABCB1 rs1128503 T>C, T/T (n 2), read-out: AUClast (SD)
  AUC(0-t): 60.9 ng·h/mL
oral, 40 mg/day, ABCB1 rs1128503 T>C, T/T (n 2), read-out: Cmax (SD)
  Cmax: 8.35 ng/mL
oral, 40 mg/day, ABCB1 rs1128503 T>C, T/T (n 2), read-out: Tmax (SD)
  Tmax: 3 h
oral, 40 mg/day, ABCB1 rs2032582 G>T, G/G (n 8), read-out: AUClast (SD)
  AUC(0-t): 34.6 ng·h/mL
oral, 40 mg/day, ABCB1 rs2032582 G>T, G/G (n 8), read-out: Cmax (SD)
  Cmax: 4.84 ng/mL
oral, 40 mg/day, ABCB1 rs2032582 G>T, G/G (n 8), read-out: Tmax (SD)
  Tmax: 12.9 h
oral, 40 mg/day, ABCB1 rs2032582 G>T, G/T (n 6), read-out: AUClast (SD)
  AUC(0-t): 46.4 ng·h/mL
oral, 40 mg/day, ABCB1 rs2032582 G>T, G/T (n 6), read-out: Cmax (SD)
  Cmax: 5.24 ng/mL
oral, 40 mg/day, ABCB1 rs2032582 G>T, G/T (n 6), read-out: Tmax (SD)
  Tmax: 9.5 h
oral, 40 mg/day, ABCB1 rs2032582 G>T, T/T (n 2), read-out: AUClast (SD)
  AUC(0-t): 60.9 ng·h/mL
oral, 40 mg/day, ABCB1 rs2032582 G>T, T/T (n 2), read-out: Cmax (SD)
  Cmax: 8.35 ng/mL
oral, 40 mg/day, ABCB1 rs2032582 G>T, T/T (n 2), read-out: Tmax (SD)
  Tmax: 3 h
oral, 40 mg/day, ABCB1 rs4148738 C>T, C/C (n 2), read-out: AUClast (SD)
  AUC(0-t): 60.9 ng·h/mL
oral, 40 mg/day, ABCB1 rs4148738 C>T, C/C (n 2), read-out: Cmax (SD)
  Cmax: 8.35 ng/mL
oral, 40 mg/day, ABCB1 rs4148738 C>T, C/C (n 2), read-out: Tmax (SD)
  Tmax: 3 h
oral, 40 mg/day, ABCB1 rs4148738 C>T, T/C (n 6), read-out: AUClast (SD)
  AUC(0-t): 46.4 ng·h/mL
oral, 40 mg/day, ABCB1 rs4148738 C>T, T/C (n 6), read-out: Cmax (SD)
  Cmax: 5.24 ng/mL
oral, 40 mg/day, ABCB1 rs4148738 C>T, T/C (n 6), read-out: Tmax (SD)
  Tmax: 9.5 h
oral, 40 mg/day, ABCB1 rs4148738 C>T, T/T (n 8), read-out: AUClast (SD)
  AUC(0-t): 34.6 ng·h/mL
oral, 40 mg/day, ABCB1 rs4148738 C>T, T/T (n 8), read-out: Cmax (SD)
  Cmax: 4.84 ng/mL
oral, 40 mg/day, ABCB1 rs4148738 C>T, T/T (n 8), read-out: Tmax (SD)
  Tmax: 12.9 h
oral, 40 mg, CYP2C8 rs10509681 T/C (n 3), read-out: AUClast (SD)
  AUC(0-t): 46.9 ng·h/mL
oral, 40 mg, CYP2C8 rs10509681 T/C (n 3), read-out: Cmax (SD)
  Cmax: 7.06 ng/mL
oral, 40 mg, CYP2C8 rs10509681 T/C (n 3), read-out: Tmax (h, SD)
  Tmax: 16.7 h
oral, 40 mg, CYP2C8 rs10509681 T/T (n 13), read-out: AUClast (SD)
  AUC(0-t): 41.2 ng·h/mL
oral, 40 mg, CYP2C8 rs10509681 T/T (n 13), read-out: Cmax (SD)
  Cmax: 5.05 ng/mL
oral, 40 mg, CYP2C8 rs10509681 T/T (n 13), read-out: Tmax (h, SD)
  Tmax: 8.92 h
oral, 40 mg, CYP2C8 rs11572080 C/C (n 13), read-out: AUClast (SD)
  AUC(0-t): 41.2 ng·h/mL
oral, 40 mg, CYP2C8 rs11572080 C/C (n 13), read-out: Cmax (SD)
  Cmax: 5.05 ng/mL
oral, 40 mg, CYP2C8 rs11572080 C/C (n 13), read-out: Tmax (h, SD)
  Tmax: 8.92 h
oral, 40 mg, CYP2C8 rs11572080 C/T (n 3), read-out: AUClast (SD)
  AUC(0-t): 46.9 ng·h/mL
oral, 40 mg, CYP2C8 rs11572080 C/T (n 3), read-out: Cmax (SD)
  Cmax: 7.06 ng/mL
oral, 40 mg, CYP2C8 rs11572080 C/T (n 3), read-out: Tmax (h, SD)
  Tmax: 16.7 h
oral, 40 mg, CYP2C9 *1/*1, NM (n = 8), mean ± SD, read-out: AUClast
  AUC(0-t): 54.5 ± 49.4 ng·h/mL
oral, 40 mg, CYP2C9 *1/*1, NM (n = 8), mean ± SD, read-out: Cmax
  Cmax: 7.28 ± 8.71 ng/mL
oral, 40 mg, CYP2C9 *1/*1, NM (n = 8), mean ± SD, read-out: Tmax
  Tmax: 8 ± 7.15 h
oral, 40 mg, CYP2C9 *2/*3, *3/*3, PM (n = 2), mean ± SD, read-out: AUClast
  AUC(0-t): 18.6 ± 22.5 ng·h/mL
oral, 40 mg, CYP2C9 *2/*3, *3/*3, PM (n = 2), mean ± SD, read-out: Cmax
  Cmax: 3.11 ± 3.75 ng/mL
oral, 40 mg, CYP2C9 *2/*3, *3/*3, PM (n = 2), read-out: Tmax
  Tmax: 24 h
oral, 40 mg, CYP2C19 *1/*1, NM (n = 6), mean ± SD, read-out: AUClast
  AUC(0-t): 33.1 ± 48.1 ng·h/mL
oral, 40 mg, CYP2C19 *1/*1, NM (n = 6), mean ± SD, read-out: Cmax
  Cmax: 5.25 ± 8.82 ng/mL
oral, 40 mg, CYP2C19 *1/*1, NM (n = 6), mean ± SD, read-out: Tmax
  Tmax: 15.5 ± 9.95 h
